Assay results taken from US20200291082A1, “PREVENTION AND TREATMENT OF GRAFT-VERSUS-HOST-DISEASE WITH DEFENSINS” (priority 2017, published 2020).

Key:
[1] = system: CD4+CD25+ Tcell transfer induced colitis; test: therapeutic murine 14 weeks CD4+CD25+ Tcell transfer induced colitis model (Example 6); type: in vivo, SCID mice; details: hBD2 1 mg/kg s.c. OD, Dexamethasone 0.3 mg/kg i.p. OD, Enbrel 100 μg/mouse s.c. twice weekly
Text: Efficacy of s.c. administration of hBD2 versus s.c. anti TNF-α (Enbrel) and intraperitoneal dexamethasone in a therapeutic, murine, 14 weeks, CD4+CD25+ Tcell transfer induced colitis model.
70 female BALB/c mice housed in groups of five per cage were allocated to 7 different treatment groups. Colitis was induced in SCID mice by transplantation of CD4+CD25+ Tcells from BALB/c mice. Lymphocytes isolated from spleen and lymph nodes from BALB/c mice were subjected to negative selection of CD4+ Tcells. Afterwards, CD4+CD25+ cells were positively isolated by binding to the beads from the CD4+ Tcell suspensions and the CD4+CD25− were collected from the supernatant. The animals were treated with hBD2, 0.1 mg/kg s.c. OD; 1 mg/kg s.c. OD or 3 mg/kg s.c. OD or with mouse anti TNFα 100 μg/mouse s.c. twice weekly or with dexamethasone 0.3 mg/kg intraperitoneally OD or PBS s.c. as vehicle from day 7 and 86 consecutive days.
Clinical assessment was based on body weight loss, stool consistency and presence of blood per rectum. The animals were sacrificed on day 95 and colon removed for assessment of weight and myeloperoxidase activity.

[2] = system: bacteria at the surface of the intestinal mucosa; test: anti microbial effect of orally administered defensins, mucin immunostaining and localization of bacteria by FISH (Example 16); type: in vivo; details: compared with mice on low fat or western diet
Experimental: Anti microbial effect of orally administered defensins (HD5 and hBD-2).
Mucus immunostaining was paired with fluorescent in situ hybridization (FISH), as previously described in order to analyze bacteria localization at the surface of the intestinal mucosa. Briefly, colonic tissues (proximal colon, 2nd cm from the cecum) without fecal material were placed in methanol-Carnoy's fixative solution (60% methanol, 30% chloroform, 10% glacial acetic acid) for a minimum of 3 hours at room temperature. Tissues were then washed in methanol 2×30 min, ethanol 2×15 min, ethanol/xylene (1:1), 15 min and xylene 2×15 min, followed by embedding in Paraffin with a vertical orientation. Five pm sections were performed and dewax by preheating at 60° C. for 10 min, followed by xylene 60° C. for 10 min, xylene for 10 min and 99.5% ethanol for 10 minutes. Hybridization step was performed at 50° C. overnight with EUB338 probe (5′-GCTGCCTCCCGTAGGAGT-3′, with a 5′ labeling using Alexa 647) diluted to a final concentration of 10 μg/mL in hybridization buffer (20 mM Tris-HCl, pH 7.4, 0.9 M NaCl, 0.1% SDS, 20% formamide). After washing 10 min in wash buffer (20 mM Tris-HCl, pH 7.4, 0.9 M NaCl) and 3×10 min in PBS, PAP pen (Sigma-Aldrich) was used to mark around the section and block solution (5% fetal bovine serum in PBS) was added for 30 min at 4° C. […]

[3] = system: microbiota in diet-induced obese mice; test: interventional treatment of dysbiosis with defensins in diet-induced obese mice (Example 8); type: in vivo
Text: Mice and diets. The experiment elucidates the effect of hBD2 and HD5 on the microbiota in diet-induced obese mice. A run-in period of 13 weeks where mice were fed a very HFD (60% energy from fat) preceded the intervention. Only mice meeting the criteria of a minimum of 12 gram weight gain (approximately 50% of initial bodyweight) during the run-in period were included in the final analyses. […] They were exposed to all experimental tests, but excluded from the analyses.
Treatment regimen. Before the intervention all mice were MR scanned. Cages of mice were allocated to experimental groups based on their fat mass. All subsequent measures were paired with data from the same mouse before the intervention. A LFD (low fat diet) reference group was running in parallel. As controls for the intervention 2 additional groups were included: 1 very HFD and 1 LFD. Experimental mice stayed on the very HFD during the intervention (FIG. 3). The mice were on the experimental diet for 10 weeks. They were co-housed throughout the experiment, 4 mice per cage, 3 cages per group. All tests ran over 3 days, 1 cage per group per day.
Tests. Microbial analyses were carried out to study the microbiota of the intestine.
Longitudinal 16S characterization was conducted on 4 paired samples from 60 mice, 240 samples in total. Each mouse was sampled prior to diet change, 1 week post diet change, 4 weeks post diet change and at termination, thus ensuring a thorough characterization of the faecal microbiota as a result of defensin treatment.

[4] = system: gut microbiota in high fat diet murine model; test: prophylactic treatment with defensins in murine high fat diet model, gut microbiota (Example 7); type: in vivo, mice
Text: Protection and preservation of gut microbiota by prophylactic treatment with defensins. Mice: Mice were housed in trios, 4 cages per group. Feed intake was registered daily just before lights were turned off at 6 pm. Individual mice were subjected to experimental procedures in altered order both group and cage wise. Mice were kept at room temperature under a 12-hour light/dark cycle at SPF standard conditions. Diets: For dosing, the average weight was estimated to be 25 grams per mouse. Mice eat approximately 3 grams of feed per mouse per day. Treatment regime: Mice were fed either a high fat diet (HFD) or a low fat (LF) control diet. The HFD contained 4 subgroups; 1 hBD2, 1 HD5, 1 hBD2/HD5 and 1 standard HFD without supplementation of defensins (FIG. 3). Defensin concentration was 1,2 mg hBD2 per kg mouse per day. HD5 was given in equimolar concentration to hBD2. […] Microbial analyses were carried out to study the microbiota of the intestine. Longitudinal 16S characterization was conducted on 4 paired samples from 60 mice, 240 samples in total. Each mouse was sampled prior to diet change, 1 week post diet change, 4 weeks post diet change and at termination, thus ensuring a thorough characterization of the faecal microbiota as a result of defensin treatment.

[5] = system: acute graft versus host disease following stem cell transplantation; test: prophylactic oral HD5 or hBD-2 in murine model of acute graft versus host disease (Example 15); type: in vivo, BALB/c mice
Experimental: To determine and assess the efficacy of prophylactic treatment with oral HD5 in a murine model of acute graft versus host disease following stem cell transplantation.
Treatment regime: 22 female BALB/c mice were irradiated with 4.5 Gy (2×498 sec) at intervals of at least 4 hours on day 0. Bone marrow was harvested: hind limbs harvested from 2 female WT C57BL/6 mice aseptically. Skeletal muscle was removed and epiphysis cut away. Lumen of bone flushed with PBS and cells pelleted and taken up. Harvest of T-cells: spleens from 2 female WT C57BL/6 mice were meshed through a […] cell strainer into a PBS filled dish. Cells were taken up in PBS and transferred into a 50 mL falcon tube and spun down. Cells were taken up in 1 mL PBS and 20 μL of CD4 microbead+20 μL CD8 microbeads per spleen added for incubation for 20 min at 4 degrees C. Cells were washed with PBS and applied to MACS separation in order to positively select CD4+ and CD8+ cells. Positively selected T-cells were counted and taken up. Transplantation: directly after the second irradiation, all WT BALB/c recipient mice were injected with 5×1.000.000 BM cells (50 μL) i.v. into the retroorbital venous plexus under isoflurane anesthesia. 22 BALB/c mice were treated with 1.2 mg of HD5/kg BW/day; 1.2 mg of hBD-2/kg BW/day or 100 μL of PBS per day vial oral gavage from day 0-10.
Survival was monitored for 60 days.

[6] = system: Trinitrobenzene Sulfonic Acid induced colitis; test: prophylactic murine 8-day Trinitrobenzene Sulfonic Acid induced colitis model (Example 3); type: in vivo, BALB/cByJ mice; details: Prednisolone 10 mg/kg s.c. once daily; hBD2 at 0.1, 0.3 and 1 mg/kg s.c. once daily
Experimental: Anti-inflammatory effect of s.c. administration of hBD2 versus s.c. prednisolone in a prophylactic murine, 8-day Trinitrobenzene Sulfonic Acid induced colitis model.
105 male BALB/cByJ mice housed in groups of five per cage were allocated to 7 different treatment groups. Colitis was induced by intracolonic administration of trinitrobenzene sulfonic acid on day 0 under light anaesthesia resulting in significant inflammation and injury of the colonic tissue. The animals were treated with hBD2 at four different dosing levels once daily (1 mg/kg, 0.3 mg/kg, 0.1 mg/kg, and 0.03 mg/kg) or Prednisolone 10 mg/kg once daily dosed subcutaneously under the dorsal skin or PBS as vehicle for 7 days.
(§1) A disease activity index (DAI) scoring system was applied for clinical assessment (FIG. 7). The animals were sacrificed on day 10 and colon removed for histological assessment employing a histological scoring system (FIG. 8).

[7] = system: Dextran Sodium Sulphate induced colitis; test: prophylactic murine 10-day oral Dextran Sodium Sulphate induced colitis model, oral hBD2 versus oral prednisolone (Example 2); type: in vivo, C57BL/6 mice; details: versus vehicle; Prednisolone 1 mg/kg twice per day p.o.; oral hBD2 all doses
Experimental: Anti-inflammatory effect of oral administration of hBD2 versus oral prednisolone in a prophylactic murine, 10-day, oral Dextran Sodium Sulphate induced colitis model.
50 male C57BL/6 mice housed in groups of five per cage were allocated to 5 different treatment groups. All animals had their drinking water supplemented with DSS 2% for 7 days to induce colitis resulting in significant inflammation and injury of the colonic tissue. The animals were treated with oral hBD2 dosed at three different dose levels twice per day or prednisolone 1 mg/kg twice per day or PBS as vehicle for 10 days.
as §1

[8] = system: house dust mite model of allergic asthma; test: therapeutic intranasal versus oral hBD2 in murine house dust mite model of allergic asthma (Example 10); type: in vivo, BALB/c mice; details: dexamethasone 1 mg/kg BID oral; hBD2 both IN doses (0.4 mg/kg/day TID and 1.7 mg/kg/day TID)
Experimental: To determine and assess the efficacy of IN versus oral therapeutic intervention with defensins in a murine house dust mite model of allergic asthma.
Treatment regime: Female 7-10 weeks old BALB/c mice were randomly allocated into 7 study groups one day prior to study start and subcutaneously (SC) sensitized to house dust mite (100 μg HDM in 200 μL saline plus Freund's complete adjuvant in 0.9% saline). Mice were then intranasally (IN) challenged with HDM on day 14 (HDM 25 μg in 50 μL of saline). Dexamethasone was administered orally (1 mg/kg BID; 50 μL phosphate buffered saline (PBS)) on day 14. hBD2 was administered IN or orally (1.7 mg/kg TID IN; 0.4 mg/kg TID IN; 0.4 mg/kg TID orally, 50 μL phosphate buffered saline) on day 14. The initial dose was administered 60 minutes prior to challenge, and the subsequent doses approximately 6 hours apart (FIG. 5).
Airway inflammation: At 48 hours post challenge, bronchoalveolar lavage was performed washing the lungs with 3 volumes of cold PBS (0.4; 0.3 and 0.3 mL, total 1 mL). Total and differential leucocyte cell counts were determined on an automated haematological analyser Sysmex XT-2000iV.
Data are represented as airway resistance at […] methacholine and as dose responsive curves.
Lung sampling for cytokine analysis: After completion of every BAL, lungs were removed from the thorax, snap frozen in liquid nitrogen and stored frozen at −80 degrees Celsius until analysis of cytokine concentration of IL-1β, TNF-α, IL-6, IL-10 and IFNγ by ELISA.

[9] = HFD plus HD5, after dietary intervention

Enbrel [reference compound]
myeloperoxidase activity ([1]; colon, day 95): statistically significant and similar effect
clinical score (body weight loss, stool consistency, presence of blood per rectum) [1]: statistically significant and similar effect on clinical score
colon weight ([1]; day 95): statistically significant and similar effect on colon weight

human intestinal alpha defensin 5 (ATCYCRTGRCATRESLSGVCEISGRLYRLCCR; listed as Homo sapiens) [HD5]
lysis zone, distance between intestinal wall and bacterial population [2]: profound effect on the distance
fat percentage ([3]; HFD plus HD5, 4 weeks after dietary change, versus HFD control): significantly lower fat percentage
fat percentage [3, 9]: tendency of decreasing fat percentage
weight gain [3, 9]: gained significantly less weight than the HFD control
abundance of Alloprevotella ([3]; colon): increased the abundance of Alloprevotella statistically significantly
relative abundance of Bifidobacteriaceae ([3]; small intestine): trend towards HD5 increasing the abundance
microbial presence and abundance (unifrac analysis) ([4]; prophylactic oral defensins in high fat diet): affected primarily the microbial abundance
abundance of Allobaculum ([4]; small intestine, prophylaxis with HD5): statistically significant increase of abundance of Allobaculum
mortality ([5]; FIG. 58, oral treatment for 10 days from day of stem cell transplantation): significant reduction of mortality
treated animals that had died by day 60 ([5]; oral 1.2 mg/kg/day day 0-10, six out of eight PBS mice died): 2 out of 8

C[C@]12C=CC(=O)C=C1CC[C@@H]1[C@@H]2[C@@H](O)C[C@@]2(C)[C@H]1CC[C@]2(O)C(=O)CO [Prednisolone, reference compound]
histological score [6]: highly statistically significant clinical effect on histological score
histological score [7]: statistically significant effect on histological score

C[C@@H]1C[C@H]2[C@@H]3CCC4=CC(=O)C=C[C@]4(C)[C@@]3(F)[C@@H](O)C[C@]2(C)[C@@]1(O)C(=O)CO [Dexamethasone, reference compound]
macrophage counts in BALF [8]: failed to inhibit
neutrophil counts in BALF [8]: failed to inhibit
